Laboratory results reported in ChEMBL document CHEMBL1139346, “Discovery of innovative small molecule therapeutics” (2009).

What was measured:
Rattus norvegicus [1] = experiment: Neuroprotective effect in rat transient mCAO focal ischemia model assessed as reduction of infarct volume at 30 mg/kg relative to control; format: functional; design: scale not given: the % may be the effect or the level left
Rattus norvegicus [2] = experiment: Neuroprotective effect in rat transient mCAO focal ischemia model assessed as reduction of infarct volume at 10 mg/kg relative to control; format: functional; design: scale not given: the % may be the effect or the level left

In the case of `CO[C@@H]1C/C(C)=C\[C@H]2CC[C@@H]([C@@H](C)C[C@@H](C)C(=O)[C@H](OC)[C@H](O)/C(C)=C/[C@@H](C)C(=O)C[C@@H]([C@H](C)C[C@@H]3CC[C@@H](O)[C@H](OC)C3)OC(=O)[C@@H]3CCCCN3C(=O)C(=O)[C@]3(O)O[C@@H](CC[C@H]3C)C1)N(c1ccccc1)O2` [ILS-920], the Activity (Rattus norvegicus [1]) is reported as 36% and the Activity (Rattus norvegicus [2]) is reported as 23%.
